Target: T1, aromatase (Homo sapiens, UniProt P11511)
T1 construct: 700 μl of aromatase preparation, usually 300-800 μg of microsomal protein per ml of assay buffer; from tissue; host or cells: microsomes
T1 sequence (P11511 1-503): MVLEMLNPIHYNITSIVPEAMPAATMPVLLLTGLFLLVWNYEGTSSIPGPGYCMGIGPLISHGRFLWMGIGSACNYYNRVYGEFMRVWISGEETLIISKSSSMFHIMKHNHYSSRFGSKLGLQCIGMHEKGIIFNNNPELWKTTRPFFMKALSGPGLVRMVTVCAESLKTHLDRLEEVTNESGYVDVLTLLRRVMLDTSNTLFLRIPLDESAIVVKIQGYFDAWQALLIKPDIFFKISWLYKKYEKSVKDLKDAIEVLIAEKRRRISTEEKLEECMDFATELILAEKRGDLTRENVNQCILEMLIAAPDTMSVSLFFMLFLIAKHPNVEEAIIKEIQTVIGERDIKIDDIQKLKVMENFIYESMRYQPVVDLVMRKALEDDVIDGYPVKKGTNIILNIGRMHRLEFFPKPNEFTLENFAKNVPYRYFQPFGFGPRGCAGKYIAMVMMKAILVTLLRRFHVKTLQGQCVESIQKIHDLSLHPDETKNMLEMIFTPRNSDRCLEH
Assay: time-dependent aromatase inhibition assay (preincubation, Kitz-Wilson analysis)
Format: biochemical
Settings: Kitz-Wilson plots
Description: In this assay, the inhibitor is preincubated with enzyme prior to assaying for activity in the presence of high substrate levels. A time-related decrease in enzyme activity can be indicative of a preferred mode of inhibition.
In the time-dependent assay, an amount of the enzyme inhibitor in 100 μl of the assay buffer described above which will provide assay concentrations which are usually between 1 nM and 10 μm are added to 35 ml centrifuge tubes containing 600 μl of the NADPH generating system. The preincubation is started by the addition of 700 μl of aromatase preparation, usually 300-800 μg of microsomal protein per ml of assay buffer. These preparations are mixed using a vortex mixer and incubated for 0, 5, 10 or 20 minutes at 25° C. […] The amount of radioactivity in the aqueous fraction is determined by scintillation procedures. The enzymatic activity for each concentration of inhibitor at each time period of preincubation is calculated as a percent of the "0" minute vehicle control arbitrarily set at 100%. Therefore, the present enzyme inhibition is expressed as a percentage: (100 percent minus percent enzyme activity with inhibitor present).
Enzyme kinetic analysis utilized Kitz-Wilson plots for time-dependent assays. […] The pseudo first-order rate constant for enzyme inactivation (kcat) and the half-time of inactivation (.tau.50) of infinite inhibitor concentrations were determined. […]

C[C@]12CC[C@H]3[C@@H](CCC4=CC(=O)[C@H]5CNC[C@]43C5)[C@@H]1CCC2=O [2β,19-(methyleneamino)androst-4-ene-3,17-dione]
.tau.50 (half-time of inactivation) (at infinite inhibitor concentrations): 2.66 min
KI (inactivation) (inhibitor concentration giving half-maximal rate of enzyme inactivation, microsomal aromatase preparation, preincubation 0-20 min at 25° C., read-out: Ki (apparent Ki of inactivation)): 259 nM
